These results are taken from PubChem BioAssay (NCI).

Among the test systems are 786-0 renal; DU-145 prostate; HL-60(TB) leukemia; MDA-MB-231 breast; NCI-H460 lung; RXF 393 renal; SK-MEL-2 melanoma; SK-MEL-28 melanoma; SNB-19 CNS; RPMI-8226 leukemia.
Holding throughout (experiment): inhibition of tumour cell growth, NCI panel, 48 h

SMILES strings stand for the structures.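 Results reflect a 48-hour exposure of cells in 96-well plates to compound at five concentrations. GI50: concentration for 50% inhibition of growth. TGI: concentration producing complete growth inhibition.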

`COc1cc2nc(-c3ccc(Cl)cc3)cc(OCCCN3CCCC3)c2cc1OC`: the GI50 with 786-0 renal is 2.78 µM; in the assay with DU-145 prostate, 2.15 µM; with HL-60(TB) leukemia it was 2.72 µM; in the assay with MDA-MB-231 breast it was 0.907 µM; with NCI-H460 lung it was 0.823 µM; in the assay with RXF 393 renal, 1.17 µM. The GI50 is 2.16 µM in the assay on SK-MEL-2 melanoma, 1.48 µM in the assay on SK-MEL-28 melanoma and 3.14 µM with SNB-19 CNS. Further, the TGI is 12.1 µM in the assay with 786-0 renal; 13.8 µM in the assay with DU-145 prostate; 8.33 µM in the assay with HL-60(TB) leukemia; 4.08 µM in the assay with MDA-MB-231 breast; 11.2 µM with NCI-H460 lung; 3.78 µM with RXF 393 renal. Also, the TGI in the assay on SK-MEL-2 melanoma came out at 5.22 µM; in the assay on SK-MEL-28 melanoma it was 4.28 µM; in the assay on SNB-19 CNS, 14.6 µM.

As for `c1ccc(CN2CCC3(CC2)SSC2(CCN(Cc4ccccc4)CC2)SS3)cc1`, the TGI with 786-0 renal, with DU-145 prostate, in the assay on MDA-MB-231 breast, in the assay on NCI-H460 lung, in the assay on RPMI-8226 leukemia and in the assay on RXF 393 renal was greater than 100 µM each time. For the same compound, the TGI with SK-MEL-2 melanoma, with SK-MEL-28 melanoma and with SNB-19 CNS was greater than 100 µM in each case.

For `O=c1c2c(c3ccccc3n1-c1ccccc1)NC(=S)NC2c1ccc(Cl)cc1` (centres undefined), the GI50 in the assay with 786-0 renal was 3.94 µM; with DU-145 prostate, 3 µM; in the assay on HL-60(TB) leukemia, 3.6 µM; in the assay with MDA-MB-231 breast it was 3.67 µM; with NCI-H460 lung it was 1.16 µM; in the assay on RXF 393 renal, 5.34 µM. Moreover, the GI50 in the assay on SK-MEL-2 melanoma was 3.62 µM; with SK-MEL-28 melanoma, 5.73 µM; with SNB-19 CNS, 4.07 µM. The TGI in the assay on 786-0 renal came to 24.4 µM; with DU-145 prostate, 28.5 µM; with HL-60(TB) leukemia, 45 µM; in the assay with MDA-MB-231 breast, 37.6 µM; in the assay with NCI-H460 lung it was 6.47 µM; in the assay on RXF 393 renal, 25.5 µM. Further, the values for the TGI with SK-MEL-2 melanoma, in the assay with SK-MEL-28 melanoma and with SNB-19 CNS were 32.4 µM, 32.5 µM and greater than 100 µM, respectively.

For the compound `Cn1cc(-c2csc(-c3cn(CCCCN4CCCCC4)c4ccc(F)cc34)n2)c2cccnc21`, the GI50 is 1.65 µM with 786-0 renal; 1.76 µM in the assay with DU-145 prostate; 1.9 µM in the assay with NCI-H460 lung; 1.52 µM with RXF 393 renal; 2.3 µM in the assay on SK-MEL-2 melanoma. The TGI in the assay with 786-0 renal turned out to be 3.02 µM; in the assay with DU-145 prostate it was 3.14 µM; with NCI-H460 lung, 3.52 µM; with RXF 393 renal, 3.04 µM; in the assay with SK-MEL-2 melanoma, 5.98 µM.

In the case of `Cc1cccc2nc3cccc(C(=O)NCCNCCNCCNC(=O)c4cccc5nc6cccc(C)c6nc45)c3nc12`, the GI50 is less than 0.0333 µM in the assay with 786-0 renal; less than 0.0139 µM with HL-60(TB) leukemia; 0.161 µM in the assay with MDA-MB-231 breast; less than 0.01 µM in the assay on NCI-H460 lung; less than 0.01 µM in the assay on RPMI-8226 leukemia; less than 0.0149 µM in the assay on RXF 393 renal. The results for the GI50 in the assay on SK-MEL-2 melanoma, with SK-MEL-28 melanoma and in the assay with SNB-19 CNS were less than 0.01 µM, 0.101 µM and less than 0.01 µM, respectively. Further, the TGI in the assay with 786-0 renal was determined as 7.74 µM; with HL-60(TB) leukemia, 1.12 µM; in the assay with MDA-MB-231 breast, 3.93 µM; in the assay with NCI-H460 lung it was 0.19 µM; in the assay on RPMI-8226 leukemia it was 0.769 µM; in the assay with RXF 393 renal, 0.228 µM. For the same compound, the values for the TGI with SK-MEL-2 melanoma, with SK-MEL-28 melanoma and in the assay with SNB-19 CNS were 0.186 µM, 4.37 µM and 15.5 µM, respectively.

As for `COC(=O)c1ccc2c(c1)C(=O)c1c-2n(C)c(=O)c2cc(OC)c(OC)cc12`, the GI50 with 786-0 renal was 21.8 µM; in the assay on DU-145 prostate, greater than 50 µM; in the assay with MDA-MB-231 breast, 21.2 µM; with NCI-H460 lung, greater than 50 µM; in the assay on RPMI-8226 leukemia it was greater than 50 µM; in the assay on RXF 393 renal, 0.123 µM. Moreover, the GI50 in the assay on SK-MEL-2 melanoma was 37.8 µM; in the assay with SK-MEL-28 melanoma it was greater than 50 µM; with SNB-19 CNS, greater than 50 µM. The TGI is greater than 50 µM in the assay on 786-0 renal; greater than 50 µM in the assay on DU-145 prostate; greater than 50 µM in the assay on MDA-MB-231 breast; greater than 50 µM in the assay on NCI-H460 lung; greater than 50 µM in the assay on RPMI-8226 leukemia; 26.1 µM with RXF 393 renal. The TGI in the assay with SK-MEL-2 melanoma, in the assay on SK-MEL-28 melanoma and in the assay on SNB-19 CNS was greater than 50 µM each time.

On to `CCCCCc1cc[n+](CC(=O)c2ccc([N+](=O)[O-])cc2)cc1`, for which the GI50 is 20.1 µM with 786-0 renal; 8.72 µM with DU-145 prostate; 6.46 µM in the assay with MDA-MB-231 breast; 3.09 µM with NCI-H460 lung; 3.18 µM with RPMI-8226 leukemia; 24.3 µM with RXF 393 renal. The figures for the GI50 in the assay with SK-MEL-2 melanoma, with SK-MEL-28 melanoma and with SNB-19 CNS were 2.7 µM, 28.9 µM and 8.01 µM, respectively. Further, the TGI in the assay on 786-0 renal was 74.2 µM; with DU-145 prostate, 37.8 µM; with MDA-MB-231 breast, 35.7 µM; in the assay with NCI-H460 lung, 11.6 µM; in the assay on RPMI-8226 leukemia it was 17 µM; with RXF 393 renal, 94.4 µM. Further, the TGI in the assay on SK-MEL-2 melanoma is 8.66 µM; in the assay on SK-MEL-28 melanoma, greater than 100 µM; in the assay on SNB-19 CNS, greater than 100 µM.

Take `Clc1nc(Cl)c2c3c(sc2n1)CCCC3`: the GI50 was 5.17 µM with 786-0 renal; 3.71 µM with DU-145 prostate; greater than 27.4 µM in the assay on HL-60(TB) leukemia; greater than 100 µM in the assay with NCI-H460 lung; 4.06 µM with RXF 393 renal; 6.97 µM in the assay on SK-MEL-28 melanoma. For the same compound, the GI50 in the assay on SNB-19 CNS is greater than 100 µM. Further, the TGI was greater than 100 µM with 786-0 renal; greater than 100 µM with DU-145 prostate; greater than 100 µM in the assay on HL-60(TB) leukemia; greater than 100 µM in the assay on NCI-H460 lung; greater than 100 µM with RXF 393 renal; greater than 59.7 µM with SK-MEL-2 melanoma. In addition, the TGI in the assay with SK-MEL-28 melanoma and in the assay with SNB-19 CNS was greater than 100 µM each time.

Consider `CN(C)CCC=C1c2ccccc2C(C)(C)c2ccccc21`, for which the GI50 in the assay with 786-0 renal was 12.8 µM; in the assay on DU-145 prostate, 14.3 µM; in the assay with HL-60(TB) leukemia, 12.4 µM; with MDA-MB-231 breast, 13.8 µM; with NCI-H460 lung, 9.23 µM; in the assay on RPMI-8226 leukemia, 2 µM. In addition, the GI50 in the assay on SK-MEL-2 melanoma is 6.26 µM; in the assay with SK-MEL-28 melanoma, 2.05 µM; in the assay on SNB-19 CNS it was 15.2 µM. For the same compound, the TGI in the assay with 786-0 renal was 27 µM; in the assay on DU-145 prostate, 27.3 µM; in the assay on HL-60(TB) leukemia, 27.1 µM; in the assay with MDA-MB-231 breast it was 28.8 µM; in the assay on NCI-H460 lung, 21.3 µM; in the assay with RPMI-8226 leukemia it was 5.93 µM. In addition, the TGI with SK-MEL-2 melanoma worked out at 22.1 µM; in the assay on SK-MEL-28 melanoma, 4.31 µM; in the assay on SNB-19 CNS, 28.5 µM.

For the compound `N#Cc1ccsc1NC(=O)COC(=O)c1cccc(S(=O)(=O)N2CCc3ccccc32)c1`, the GI50 in the assay with 786-0 renal is 47.3 µM; with DU-145 prostate, 33.7 µM; in the assay with HL-60(TB) leukemia, 37.9 µM; in the assay with NCI-H460 lung, 18.2 µM; in the assay with RPMI-8226 leukemia it was 17.4 µM; in the assay with RXF 393 renal, 31.3 µM. The figures for the GI50 with SK-MEL-2 melanoma, with SK-MEL-28 melanoma and in the assay on SNB-19 CNS were greater than 100 µM, 22.4 µM and 55.8 µM, respectively. Moreover, the TGI in the assay on 786-0 renal, with DU-145 prostate, in the assay on HL-60(TB) leukemia, in the assay on NCI-H460 lung, in the assay on RPMI-8226 leukemia and in the assay with RXF 393 renal was greater than 100 µM in each case. Moreover, the TGI in the assay on SK-MEL-2 melanoma, with SK-MEL-28 melanoma and with SNB-19 CNS was greater than 100 µM throughout.

For the compound `CC1(C)CCCC(C)(C2CCC3(C)C2C(O)CC2C4(C)CCC(O)C(C)(C)C4C(O)CC23C)O1` (centres undefined), the TGI came to 72.5 µM with 786-0 renal; 32.4 µM in the assay with DU-145 prostate; 5.44 µM in the assay on HL-60(TB) leukemia; 34.8 µM in the assay with MDA-MB-231 breast; 25.3 µM in the assay with NCI-H460 lung; 28 µM in the assay on SK-MEL-2 melanoma. The values for the TGI in the assay with SK-MEL-28 melanoma and with SNB-19 CNS were 28.2 µM and 25.5 µM, respectively.

Regarding `CCN(CC)CCOc1ccc(/C=C2\C[C@H]3[C@H]4CC=C5C[C@@H](O)CC[C@]5(C)[C@H]4CC[C@]3(C)[C@H]2O)cc1OC`, the GI50 with 786-0 renal is 5.09 µM; with DU-145 prostate, 3.86 µM; with HL-60(TB) leukemia it was 10.4 µM; with MDA-MB-231 breast, 6.94 µM; with NCI-H460 lung, 13.1 µM; in the assay with RXF 393 renal, 13.4 µM. Also, the GI50 was 0.135 µM in the assay on SK-MEL-2 melanoma, 7.74 µM in the assay on SK-MEL-28 melanoma and 17.1 µM in the assay with SNB-19 CNS. Moreover, the TGI in the assay with 786-0 renal was 16.1 µM; in the assay with DU-145 prostate, 10.2 µM; in the assay with HL-60(TB) leukemia, 22.5 µM; in the assay on MDA-MB-231 breast, 14.2 µM; with NCI-H460 lung, greater than 50 µM; in the assay with RXF 393 renal, 39.3 µM. In addition, the TGI in the assay with SK-MEL-2 melanoma, in the assay with SK-MEL-28 melanoma and in the assay with SNB-19 CNS was greater than 50 µM throughout.

Consider `O=C(NNc1ccc(F)cc1)C1CCC(CNS(=O)(=O)c2ccc(Cl)c(Cl)c2)CC1` (centres undefined), for which the GI50 in the assay with 786-0 renal is 17.9 µM; in the assay with DU-145 prostate, 5.52 µM; in the assay with HL-60(TB) leukemia, 1.82 µM; with MDA-MB-231 breast, 3.17 µM; with NCI-H460 lung it was 3.18 µM; with RPMI-8226 leukemia, 3.36 µM. In addition, the GI50 in the assay with SK-MEL-2 melanoma, in the assay with SK-MEL-28 melanoma and in the assay with SNB-19 CNS was greater than 50 µM each time. Moreover, the TGI in the assay with 786-0 renal was greater than 50 µM; in the assay with DU-145 prostate it was greater than 50 µM; with HL-60(TB) leukemia, 9.57 µM; in the assay on MDA-MB-231 breast it was 25.4 µM; in the assay with NCI-H460 lung, greater than 50 µM; in the assay on RPMI-8226 leukemia it was 24.2 µM. For the same compound, the TGI in the assay with SK-MEL-2 melanoma, in the assay on SK-MEL-28 melanoma and in the assay on SNB-19 CNS was greater than 50 µM each time.
